Where “and” joins values, the source holds several entries; their conditions need not be identical. Equal entries are not always repeated. Where two headings read alike, the source gives them in different places. Residues, ends and D or L forms follow the SMILES beside them. *: point of attachment. Palmitoyl = CCCCCCCCCCCCCCCC(=O)*; AEEA = NCCOCCOCC(=O)O
Tests used:
[1] = system: S. aureus ATCC 25923; format: cell-based; settings: for Fold change in MIC: relative to MIC of first passage, Mean
Procedure: (§1) Development of resistance to the peptides was assessed with S. aureus and S. Typhimurium. […] Bacteria were cultured overnight at 37 °C at 150 rpm in TSB. Bacteria were washed twice with 10 mM sodium phosphate buffer containing 1% (w/v) TSB. […] After incubation, 100 µl of 6% TSB (w/v) was added and plates incubated in a humidified atmosphere for 21 h at 37 °C and 150 rpm.
(§2) The MIC, the lowest concentration of peptide/antibiotic that caused a lack of visible bacterial growth, was determined for each bacterial species. […] This was repeated for 25 passages.

[2] = system: S. Typhimurium DSM554; settings: for Fold change in MIC: relative to MIC of first passage, Mean
Procedure: as §1, §2

[3] = system: B. subtilis ypuA promoter; experiment: ypuA promoter luciferase reporter strain (cell envelope stress); format: cell-based
Procedure: A specific bacterial reporter strain with the genetic background of Bacillus subitilis 1S34, carrying the promoter of the ypuA gene, fused to the firefly luciferase reporter gene, was used to identify cell envelope-related damage caused by treatment with antimicrobial compounds[31]. The assay was carried out in agreement with former reports describing this method[20],[59]. Bacteria were cultured to an OD600 of 0.9 in LB broth with 5 µg/ml erythromycin at 37 °C and diluted to an OD600 of 0.02. Serial peptide dilutions (0.15–150 µM) were prepared in a microtiter plate and incubated with the adjusted bacterial suspension at 37 °C for 1 h. Subsequently, citrate buffer (0.1 M, pH 5) containing 2 mM luciferin (Iris Biotech, Germany) was added and luminescence was measured using a microplate reader (Tecan, Switzerland).

[4] = Oral tolerance test (safety) in mice; format: in vivo, C57BL/6N mice; settings: for Creatinin / GOT: serum; for Creatinin / GOT / Bodyweight loss: individual animals
From the text: C57BL/6N mice were generated and maintained (including breeding and housing) at the animal facilities of the Helmholtz Centre for Infection Research (HZI) under enhanced specific pathogen-free (SPF) conditions. Animals used in the experiments were gender and age matched. Female and male mice with an age of 8–12 weeks were used. Sterilized food and water ad libitum was provided. Mice were kept under a strict 12-h light cycle (lights on at 7:00 am and off at 7:00 pm) and housed in groups of two to six mice per cage. All mice were euthanized by asphyxiation with CO2 and cervical dislocation. All animal experiments were performed in agreement with the local government of Lower Saxony, Germany (approved permission No. 33.19-42502-04-18/2499).
Age- and gender-matched mice received two doses of peptides (0, 125 µg or 250 µg) solved in 100 µl PBS orally per day. Bodyweight and appearance were recorded. The following day, mice were sacrificed and stomach, kidney, spleen, liver, small intestine, cecum, and colon were removed for histological scoring. Around 1 ml of blood was taken from the heart to measure inflammatory markers, including creatinine in the kidney and the enzyme levels of glutamate-oxalacetate-transaminase (GOT) in the liver.

[5] = histology, animals with signs of pathology/total, treated twice with 250 µg orally, within 24 h
[6] = one day after 2 x 125 µg orally, N = 4
[7] = one day after 2 x 250 µg orally, N = 6

CCCCCCCCCCCCCCCC(=O)NCCOCCOCC(=O)N[C@@H](CCCNC(=N)N)C(=O)NCC(=O)N[C@@H](CCCCN)C(=O)N[C@@H](C)C(=O)N[C@@H](CCCCN)C(=O)N[C@@H](CS)C(=O)N[C@@H](CS)C(=O)N[C@@H](CCCCN)C(=O)O [Pam-3] ({Palmitoyl-AEEA}-RGKAKCCK-OH; C-terminus assumed)
Fold change in MIC ([1]; Day (passage) 0): 1.0
Fold change in MIC ([1]; Day (passage) 1): 0.7
Fold change in MIC ([1]; Day (passage) 2): 1.0
Fold change in MIC ([1]; Day (passage) 3): 1.0
Fold change in MIC ([1]; Day (passage) 4): 1.3
Fold change in MIC ([1]; Day (passage) 5): 1.2
Fold change in MIC ([1]; Day (passage) 6): 0.8
Fold change in MIC ([1]; Day (passage) 7): 0.7
Fold change in MIC ([1]; Day (passage) 8): 0.8
Fold change in MIC ([1]; Day (passage) 9): 1.0
Fold change in MIC ([1]; Day (passage) 10): 1.3
Fold change in MIC ([1]; Day (passage) 11): 1.3
Fold change in MIC ([1]; Day (passage) 12): 1.2
Fold change in MIC ([1]; Day (passage) 13): 1.2
Fold change in MIC ([1]; Day (passage) 14): 1.3
Fold change in MIC ([1]; Day (passage) 15): 1.2
Fold change in MIC ([1]; Day (passage) 16): 0.7
Fold change in MIC ([1]; Day (passage) 17): 1.3
Fold change in MIC ([1]; Day (passage) 18): 0.7
Fold change in MIC ([1]; Day (passage) 19): 1.8
Fold change in MIC ([1]; Day (passage) 20): 1.2
Fold change in MIC ([1]; Day (passage) 21): 1.0
Fold change in MIC ([1]; Day (passage) 22): 1.3
Fold change in MIC ([1]; Day (passage) 23): 1.2
Fold change in MIC ([1]; Day (passage) 24): 1.3
Fold change in MIC ([1]; Day (passage) 25): 1.2
increase in MIC (in words) ([1]; sub-inhibitory concentrations for 25 passages): no significant increase
Fold change in MIC ([2]; Day (passage) 0): 1.0
Fold change in MIC ([2]; Day (passage) 1): 0.7
Fold change in MIC ([2]; Day (passage) 2): 0.5
Fold change in MIC ([2]; Day (passage) 3): 0.7
Fold change in MIC ([2]; Day (passage) 4): 0.7
Fold change in MIC ([2]; Day (passage) 5): 0.7
Fold change in MIC ([2]; Day (passage) 6): 0.7
Fold change in MIC ([2]; Day (passage) 7): 0.8
Fold change in MIC ([2]; Day (passage) 8): 0.7
Fold change in MIC ([2]; Day (passage) 9): 0.7
Fold change in MIC ([2]; Day (passage) 10): 1.3
Fold change in MIC ([2]; Day (passage) 11): 1.2
Fold change in MIC ([2]; Day (passage) 12): 0.7
Fold change in MIC ([2]; Day (passage) 13): 0.8
Fold change in MIC ([2]; Day (passage) 14): 0.7
Fold change in MIC ([2]; Day (passage) 15): 0.375
Fold change in MIC ([2]; Day (passage) 16): 0.7
Fold change in MIC ([2]; Day (passage) 17): 1.0
Fold change in MIC ([2]; Day (passage) 18): 0.8
Fold change in MIC ([2]; Day (passage) 19): 0.7
Fold change in MIC ([2]; Day (passage) 20): 0.5
Fold change in MIC ([2]; Day (passage) 21): 0.7
Fold change in MIC ([2]; Day (passage) 22): 1.0
Fold change in MIC ([2]; Day (passage) 23): 0.5
Fold change in MIC ([2]; Day (passage) 24): 0.5
Fold change in MIC ([2]; Day (passage) 25): 0.5
emergence of resistant isolates (in words) ([2]; continuous serial passages): no resistant S. Typhimurium isolates emerged
activation of the ypuA promoter [3]: 2 fold
ypuA promoter activation (relative to untreated = 1) ([3]; 0.031x MIC Pam-3, 1 h, experiment 1): 1.05
ypuA promoter activation (relative to untreated = 1) ([3]; 0.031x MIC Pam-3, 1 h, experiment 2): 1.15
ypuA promoter activation (relative to untreated = 1) ([3]; 0.031x MIC Pam-3, 1 h, experiment 3): 1.17
ypuA promoter activation (relative to untreated = 1) ([3]; 0.062x MIC Pam-3, 1 h, experiment 1): 1.16
ypuA promoter activation (relative to untreated = 1) ([3]; 0.062x MIC Pam-3, 1 h, experiment 2): 1.27
ypuA promoter activation (relative to untreated = 1) ([3]; 0.062x MIC Pam-3, 1 h, experiment 3): 1.36
ypuA promoter activation (relative to untreated = 1) ([3]; 0.125x MIC Pam-3, 1 h, experiment 1): 1.38
ypuA promoter activation (relative to untreated = 1) ([3]; 0.125x MIC Pam-3, 1 h, experiment 2): 1.48
ypuA promoter activation (relative to untreated = 1) ([3]; 0.125x MIC Pam-3, 1 h, experiment 3): 1.76
ypuA promoter activation (relative to untreated = 1) ([3]; 0.25x MIC Pam-3, 1 h, experiment 1): 2.12
ypuA promoter activation (relative to untreated = 1) ([3]; 0.25x MIC Pam-3, 1 h, experiment 2): 2
ypuA promoter activation (relative to untreated = 1) ([3]; 0.25x MIC Pam-3, 1 h, experiment 3): 2.57
ypuA promoter activation (relative to untreated = 1) ([3]; 0.5x MIC Pam-3, 1 h, experiment 1): 0.23
ypuA promoter activation (relative to untreated = 1) ([3]; 0.5x MIC Pam-3, 1 h, experiment 2): 0.18
ypuA promoter activation (relative to untreated = 1) ([3]; 0.5x MIC Pam-3, 1 h, experiment 3): 0.26
ypuA promoter activation (relative to untreated = 1) ([3]; 1x MIC Pam-3, 1 h, experiment 1): 0
ypuA promoter activation (relative to untreated = 1) ([3]; 1x MIC Pam-3, 1 h, experiment 2): 0
ypuA promoter activation (relative to untreated = 1) ([3]; 1x MIC Pam-3, 1 h, experiment 3): 0.02
ypuA promoter activation (relative to untreated = 1) ([3]; 2x MIC Pam-3, 1 h, experiment 1): 0
ypuA promoter activation (relative to untreated = 1) ([3]; 2x MIC Pam-3, 1 h, experiment 2): 0
ypuA promoter activation (relative to untreated = 1) ([3]; 2x MIC Pam-3, 1 h, experiment 3): 0
acute toxicity (in words) ([4]; histology and serum markers 24 h after two doses of 250 µg orally): did not reveal acute toxicity
Cecum and Colon: Dysplasia [4, 5]: 0/6
Cecum and Colon: Inflammation [4, 5]: 0/6
Duodenum-Jejunum: Dysplasia [4, 5]: 0/6
Duodenum-Jejunum: Inflammation [4, 5]: 0/6
Jejunum-Ileum: Dysplasia [4, 5]: 2/6
Jejunum-Ileum: Inflammation [4, 5]: 0/6
Jejunum-Ileum: Paneth cells [4, 5]: 0/6
Kidney: Glomeruli [4, 5]: 0/6
Kidney: Papilla [4, 5]: 0/6
Kidney: Pelvis [4, 5]: 0/6
Kidney: Tubuli [4, 5]: 3/6
Liver: Anisocaryosis [4, 5]: 0/6
Liver: Double nucleated cells [4, 5]: 0/6
Liver: Fatty change [4, 5]: 0/6
Liver: Glycogen [4, 5]: 0/6
Liver: Hematopoiesis [4, 5]: 0/6
Liver: Lymphocytic aggregates [4, 5]: 0/6
Stomach: Glycogen [4, 5]: 0/6
Stomach: Lymphocytic aggregates [4, 5]: 0/6
bodyweight (in words) ([4]; oral Pam-3, Fig. 4a): no alterations in bodyweight
serum glutamic oxaloacetic transaminase vs PBS (in words) ([4]; oral Pam-3, Fig. 4b): no significant differences
serum creatinine vs PBS (in words) ([4]; oral Pam-3, Fig. 4c): no significant differences
Creatinin [4, 6]: 0.7 mg/dL and 0.3 mg/dL
GOT [4, 6]: 56 U/I and 83 U/I and 71 U/I and 622 U/I
Creatinin [4, 7]: 0.4 mg/dL and 0.5 mg/dL and 0.3 mg/dL and 0.2 mg/dL and 0.6 mg/dL
GOT [4, 7]: 271 U/I and 163 U/I and 240 U/I and 280 U/I and 771 U/I and 499 U/I
Bodyweight loss ([4]; treated twice with 125 µg orally, N = 5): 98.6047% and 99.4355% and 98.663% and 99.2814% and 97.8588%
Bodyweight loss ([4]; treated twice with 250 µg orally, N = 6): 97.5318% and 97.8707% and 99.133% and 99.7222% and 99.016% and 101.461%

Source: paper PMC7794397, “Curbing gastrointestinal infections by defensin fragment modifications without harming commensal microbiota” (Communications Biology, 2021)
